Like-named read-outs stand apart in the source and are kept apart here.

Data set [1] relates to AR (plasmid pCMVhAR) in CV-1 cells. The data set is described as follows: Transcriptional activation (AR-mediated luciferase reporter, cotransfected CV-1 cells). In kind it is cell-based. The conditions noted are these: for minimal effective concentration: read-out: Potency: lowest concentration of the ligand capable of maximally stimulating AR-mediated transcription. Here is the method:
The agonist activity of each ligand was examined using transfected CV-1 cells (American Type Culture Collection, Rockville, Md.). CV-1 cells were maintained in DMEM containing 10% FBS at 37° C. in a humidified atmosphere containing 5% carbon dioxide. DMEM without phenol red was used during transfection studies. One day before transfection, monolayer cells were removed from flasks and plated at a density of 4.5×10^5 cells/well in 6-well tissue culture plates. Cells in each well were then cotransfected with 100 ng of an AR expression vector (plasmid pCMVhAR; provided by Dr. Elizabeth Wilson at The University of North Carolina, Chapel Hill, N.C.), 2.5 μg of a luciferase reporter vector (plasmid pMMTV-Luc; provided by Dr. Ronald Evans at The Salk Institute, San Diego, Calif.), and 2.5 μg of a control β-galactosidase vector (plasmid pSV-β-galactosidase; Promega Corporation, Madison, Wis.). Transfection was performed using Lipofectamine™ according to the manufacturer's instructions (Life Technologies, Gaithersburg, Md.). Ten hours after adding the transfection reagent, cells were washed twice with DMEM containing 0.2% FBS and then returned to the incubator. After an additional 10 to 12 hours of incubation, the medium was removed and replaced with DMEM containing 0.2% FBS and various concentrations of DHT or the ligand of interest. Final ligand concentrations were 0.1, 1, 10, 50, 100, 500, and 1,000 nM. The drug-containing medium was replaced after 24 hours of incubation to minimize the possible effects of ligand degradation on measurement of transcriptional activation. Control studies in which neither DHT nor ligand were added to the medium were also performed. Cells were washed with phosphate buffered saline, pH 7.4, after 48 hours of drug treatment and harvested using 350 μL of reporter lysis buffer (Promega Corporation, Madison, Wis.). Cell lysates were transferred to a microcentrifuge tube, vortexed briefly, and centrifuged at 12,000 g for 2 minutes; An aliquot (150 μL) of supernatant was used for determination of β-galactosidase activity in each well using a spectrophotometer (Cary Model 1E, Varian Associates, Sunnyvale, Calif.) set at a wavelength of 420 nm. A separate aliquot (100 μL) was used for determination of luciferase activity assay (Luciferase Assay System, Promega Corporation, Madison, Wis.) using an automated luminometer (Model AutoLumat LB953, Wallac Inc., Gaithersburg, Md.). Viable cell numbers and transfection efficiency in each well were normalized by expressing the transcriptional activation as a ratio of the luciferase activity to β-galactosidase activity in individual wells. […] All experiments were performed in triplicate. Potency was reported as the lowest concentration of the ligand used during transfection experiments capable of producing maximal AR-mediated transcriptional activation.
(In a reporter assay the amount or activity of a reporter protein is the signal.)

The conditions of data set [2]: oral administration; cited from earlier work.
For data set [3] the following is noted: cited from earlier work.
For data set [4], the system named is androgen receptor (in vivo functional activity). The conditions noted are these: vs other antiandrogen therapies; cited from earlier work.
The target of data set [5] is T1, cytosolic androgen receptor (AR) (Rattus norvegicus, UniProt P15207).
T1 construct: The supernatant (cytosol) containing AR protein was removed and stored; from tissue; host or cells: ventral prostate cytosol of castrated male Sprague-Dawley rats
T1 sequence (P15207 1-902): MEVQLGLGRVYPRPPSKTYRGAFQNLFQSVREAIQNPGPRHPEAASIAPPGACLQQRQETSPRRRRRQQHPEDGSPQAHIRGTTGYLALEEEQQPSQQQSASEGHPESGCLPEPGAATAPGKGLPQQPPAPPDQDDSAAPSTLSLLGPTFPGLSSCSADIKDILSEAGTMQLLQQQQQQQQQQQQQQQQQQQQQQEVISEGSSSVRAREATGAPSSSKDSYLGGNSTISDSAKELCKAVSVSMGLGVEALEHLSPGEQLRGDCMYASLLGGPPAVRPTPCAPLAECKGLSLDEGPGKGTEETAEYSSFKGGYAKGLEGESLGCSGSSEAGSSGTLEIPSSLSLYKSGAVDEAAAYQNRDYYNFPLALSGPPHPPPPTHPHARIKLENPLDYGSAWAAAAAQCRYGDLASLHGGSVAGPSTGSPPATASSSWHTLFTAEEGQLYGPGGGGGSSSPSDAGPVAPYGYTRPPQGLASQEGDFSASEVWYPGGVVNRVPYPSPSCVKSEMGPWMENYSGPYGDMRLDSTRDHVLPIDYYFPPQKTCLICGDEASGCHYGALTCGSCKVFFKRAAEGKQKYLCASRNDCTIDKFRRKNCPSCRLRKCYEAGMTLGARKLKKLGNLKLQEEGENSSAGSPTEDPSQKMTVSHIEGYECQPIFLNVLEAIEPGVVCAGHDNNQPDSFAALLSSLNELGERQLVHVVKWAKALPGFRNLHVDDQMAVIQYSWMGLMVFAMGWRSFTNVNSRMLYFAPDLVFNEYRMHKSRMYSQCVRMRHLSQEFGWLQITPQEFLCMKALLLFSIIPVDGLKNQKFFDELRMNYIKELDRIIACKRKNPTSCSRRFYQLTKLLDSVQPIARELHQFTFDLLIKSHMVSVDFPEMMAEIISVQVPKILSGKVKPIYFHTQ
The data set is described as follows: biochemical. In kind it is binding, Sprague-Dawley rats.

The subject of another data set is AR. The data set is described as follows: Covalent (irreversible) binding to the AR. Conditions: studies not described.
Data set [6] addresses T1, cytosolic androgen receptor (AR). In words: Saturation binding of 3H-MIB to AR in cytosol (Scatchard). Conditions: mean±S.D., n=3; 4° C., 18 hours. More on the design: species or system Sprague-Dawley rats.
For a further data set, the system named is sperm production in men. The conditions noted are these: cited from earlier work.
[7] abbreviates: CV-1, 48 h, read-out: Agonist Activity (% of DHT): maximal percentage of transcriptional activation observed for each ligand.
Where [8] appears, read: healthy male volunteers, single oral dose of the racemic mixture.
Setting [9] is: 3H-MIB 1 nM, 4° C., 18 hours, R-isomers of C-1 to C-5, read-out: Ki (Table 1).
The mark [10] stands for this setting: CV-1, read-out: agonist activity.

Consider `C[C@]12CCC(=O)C[C@@H]1CC[C@@H]1[C@@H]2CC[C@]2(C)[C@@H](O)CC[C@@H]12` [DHT, dihydrotestosterone, reference compound], for which the Emax in data set [1] (setting [7]) was 100%.

As to `C[C@]12CC[C@H]3[C@@H](CCC4=CC(=O)CC[C@@]43C)[C@@H]1CC[C@@H]2O` [testosterone], in data set [2], the “oral absorption / androgenic effect (in words)” value was “readily absorbed after oral administration, but demonstrates little androgenic effect due to rapid hepatic metabolism”.

Consider `CC(O)(CS(=O)(=O)c1ccc(F)cc1)C(=O)Nc1ccc(C#N)c(C(F)(F)F)c1` (racemic) [Casodex], for which the oral absorption entry in data set [3] (after oral administration) is listed as “well absorbed after oral administration”. Besides, the biological half-life in data set [3] (in man) was 6 days. In addition, the “tolerance (in words)” value in data set [4] is listed as “improved tolerance”.

In the case of `CCC(=O)Nc1ccc(SC[C@](C)(O)C(=O)Nc2ccc(C#N)c(C(F)(F)F)c2)cc1` [C-10], in data set [5], the affinity, expressed as Ki, was 3.81 nM and the “RBA (%): (IC50 of DHT)/(IC50 of a ligand)*100%” value (“RBA (%)” for short) was 7.08%.

Take `C[C@](O)(CSc1ccc(NC(=O)CCl)cc1)C(=O)Nc1ccc(C#N)c(C(F)(F)F)c1` [C-1 (R)]: the “covalent (irreversible) binding to AR” value in the data set on AR is listed as “does not covalently (i.e., irreversibly) bind the AR”.

On to `CC(=O)Nc1ccc(S(=O)(=O)C[C@](C)(O)C(=O)Nc2ccc(C#N)c(C(F)(F)F)c2)cc1` [C-7], for which, in data set [5], the affinity corresponds to a Ki of 1.7 nM and the “RBA (%)” value is listed as 15.9%.

For the molecule `CC(=O)Nc1ccc(SC[C@@](C)(O)C(=O)Nc2ccc(C#N)c(C(F)(F)F)c2)cc1` [C-8 (S)], in data set [5], the affinity, expressed as Ki, was 141 nM and the “RBA (%)” value is 0.19%.

Consider `C[C@@H]1CC2=CC(=O)CC[C@@H]2[C@H]2CC[C@@]3(C)[C@@H](CC[C@]3(C)O)[C@@H]21` [3H-MIB, (17α-methyl-^3 H)-Mibolerone], for which the Kd in data set [6] was found to be 0.19 ± 0.01 nM.

Consider `CCC(=O)N(C(=O)CC)c1ccc(SC[C@](C)(O)C(=O)Nc2ccc(C#N)c(C(F)(F)F)c2)cc1` [C-11], for which, in data set [5], the Ki is above 1000 nM and the “RBA (%)” value was below 0.10%.

In the case of `C[C@](O)(CS(=O)(=O)c1ccc(F)cc1)C(=O)Nc1ccc(C#N)c(C(F)(F)F)c1` [R-Bicalutamide, reference compound], the “AR-mediated transcriptional activation (in words)” value in data set [1] is given as “unable to stimulate AR-mediated transcriptional activation at even the highest concentrations tested”. In addition, the Emax in data set [1] (setting [7]) worked out at 8.28 ± 2.66%. In data set [1] (CV-1, read-out: mean agonist activity at 1,000 nM), the Emax at 1 µM was 8.3%. Moreover, the elimination half-life in data set [3] (setting [8]) was 101 h.

Turning to `CCCCCCC(=O)O[C@H]1CC[C@H]2[C@@H]3CCC4=CC(=O)CC[C@]4(C)[C@H]3CC[C@]12C` [testosterone enanthate], the “testosterone peak levels after injection (in words)” value in the data set on sperm production in men (immediately following intramuscular injection) is “supraphysiologic peak levels of testosterone”. In addition, the “azoospermia or severe oligospermia (less than 3 million sperm per ml) and infertility, share of men” value in the data set on sperm production in men (weekly intramuscular injections, WHO report) is 98%.

Turning to `C[C@](O)(CI)C(=O)Nc1ccc([N+](=O)[O-])c(C(F)(F)F)c1` [C-5], the Ki in data set [5] (setting [9]) was 0.86 ± 0.11 nM. In addition, the Emax in data set [1] (setting [7]) was 88.6 ± 18%. In addition, the minimal effective concentration in data set [1] (CV-1, 48 h) was 0.5 µM.

`C[C@@](O)(CS(=O)(=O)c1ccc(F)cc1)C(=O)Nc1ccc(C#N)c(C(F)(F)F)c1` [S-Casodex]: in data set [3] (setting [8]), the “elimination half-life (t1/2)” value was 19 h.

Turning to `CC(=O)N(C(C)=O)c1ccc(SC[C@](C)(O)C(=O)Nc2ccc(C#N)c(C(F)(F)F)c2)cc1` [C-9], in data set [5], the Ki amounted to 2.64 nM and the “RBA (%)” value came to 10.2%.

`C[C@](O)(CBr)C(=O)Nc1ccc(C#N)c(C(F)(F)F)c1` [C-2]: the Ki in data set [5] (setting [9]) was 7.98 ± 0.86 nM. Also, the values for the Emax in data set [1] (setting [7]) and in data set [1] (setting [10]) were 18.5 ± 5.08% and below 20%, respectively. Moreover, the minimal effective concentration in data set [1] (CV-1, 48 h) was found to be 0.5 µM.

Consider `C[C@](O)(CI)C(=O)Nc1ccc(C#N)c(C(F)(F)F)c1` [C-4], for which the Ki in data set [5] (setting [9]) amounted to 2.79 ± 1.35 nM. The Emax in data set [1] (setting [7]) is 20.5 ± 7.57%; in data set [1] (setting [10]), below 20%. The minimal effective concentration in data set [1] (CV-1, 48 h) amounted to 0.5 µM.

Regarding `CC(=O)Nc1ccc(SC[C@](C)(O)C(=O)Nc2ccc(C#N)c(C(F)(F)F)c2)cc1` [C-8 (R)], in data set [5], the Ki is 1 nM and the “RBA (%)” value turned out to be 26.9%.

As a reminder, the Ki is the equilibrium dissociation constant of an inhibitor or competing ligand from its target. As usually defined, the Kd is the free concentration of one partner at which half of the binding sites on the other are occupied at equilibrium, for simple one-to-one binding.
